Experimental data taken from PMC12292835, “Amylin Receptor 1 Mutagenesis Revealed a Potential Role of Calcitonin Serine 29 in Receptor Interaction” (Biomedicines, 2025).
Where a SMILES comes first, the peptide text is derived from it. The star is where a group is joined. FITC = O=C1OC2(c3ccc(O)cc3Oc3cc(O)ccc32)c2ccc(NC(=S)*)cc21

Columns and labels:
[1] = target: T1, amylin receptor 1 ECD wild-type (WT) (Homo sapiens, UniProt O60894+P30988); experiment: FP saturation binding, FITC peptide probes, wild-type amylin receptor 1 ECD; details: for Average fluorescence intensity change upon receptor ECD binding: % of a free probe intensity, Mean ± S.D., WT, max receptor 3 μM (sCT), 1 μM (AC413)
T1 construct: pHLsec/hRAMP1.24–111-(GSA)3-hCTR.34–141-H6 (H-pSL005); H6 (hexahistidine) (C); made in house; host or cells: HEK293 (transient transfection, secreted, N-glycosylated)
T1 sequence (O60894 24-111): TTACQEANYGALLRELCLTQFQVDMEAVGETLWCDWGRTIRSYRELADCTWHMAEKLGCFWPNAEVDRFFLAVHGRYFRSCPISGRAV
T1 sequence (P30988 34-141): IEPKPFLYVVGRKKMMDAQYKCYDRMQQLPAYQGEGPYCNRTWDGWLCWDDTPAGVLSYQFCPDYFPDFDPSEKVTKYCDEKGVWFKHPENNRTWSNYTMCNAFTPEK
From the text: (§1) pHLsec-based vectors were used to express wild-type and mutated amylin receptor 1 extracellular domains as secreted proteins to cell culture media. The plasmid DNA construct of the wild-type amylin receptor 1 extracellular domain, pHLsec/hRAMP1.24–111-(GSA)3-hCTR.34–141-H6 (H-pSL005) was previously described. The following DNA vector plasmids were made for this study: pHLsec/hRAMP1.24–111-(GSA)3-hCTR.34–141.D97A-H6 (D-pSL009), pHLsec/hRAMP1.24–111-(GSA)3-hCTR.34–141.D97E-H6 (D-pJS001), pHLsec/hRAMP1.24–111-(GSA)3-hCTR.34–141.D101A-H6 (D-pJJ003), pHLsec/hRAMP1.24–111-(GSA)3-hCTR.34–141.D101E-H6 (D-pJJ002), pHLsec/hRAMP1.24–111-(GSA)3-hCTR.34–141.E123A-H6 (D-pJJ004), pHLsec/hRAMP1.24–111-(GSA)3-hCTR.34–141.E123D-H6 (D-pJJ001), pHLsec/hRAMP1.24–111-(GSA)3-hCTR.34–141.N124A-H6 (D-pJS005), pHLsec/hRAMP1.24–111-(GSA)3-hCTR.34–141.N124D-H6 (D-pJS006), pHLsec/hRAMP1.24–111-(GSA)3-hCTR.34–141.N135A-H6 (D-pJW001), and pHLsec/hRAMP1.24–111-(GSA)3-hCTR.34–141.N135D-H6 (D-pJS002). The mutations were introduced to the calcitonin receptor extracellular domain by using DNA Assembly reaction. Coding sequences of the receptor expression vectors were confirmed with Sanger sequencing by Bionics (Seoul, Republic of Korea). DNA plasmid vectors were extracted and were purified from bacterial cells with NucleoBond® Extra Midi Plus kit (Macherey-Nagel, Germany). The purified DNA vectors were stored at −20 °C until their use for mammalian cell transfection.
(§2) The overall experimental procedure of reconstituting the functional amylin receptor 1 extracellular domain (ECD) as the fusion protein of RAMP1 ECD and the calcitonin receptor ECD was previously described. The wild-type and mutated amylin receptor 1 ECDs were expressed from HEK293 cells with transient transfection with polyethylenimine. […]
(§3) The overall procedure of the FP binding assay with a saturation binding format was previously described. […] FITC-labeled peptide probes were incubated for 1 h at room temperature with the purified receptor protein prior to fluorescence signal measurement. […]

[2] = target: T2, amylin receptor 1 ECD with calcitonin receptor D101E mutation (Homo sapiens, UniProt O60894+P30988, D101E); experiment: FP saturation binding, D101E; details: for Average fluorescence intensity change upon receptor ECD binding: % of a free probe intensity, Mean ± S.D., max receptor 3 μM (sCT), 1 μM (AC413)
T2 construct: pHLsec/hRAMP1.24–111-(GSA)3-hCTR.34–141.D101E-H6 (D-pJJ002); H6 (hexahistidine) (C); made in house; host or cells: HEK293 (transient transfection, secreted, N-glycosylated)
T2 sequence (O60894 24-111): as the sequence (O60894 24-111) above
T2 sequence (P30988 34-141 D101E): as the sequence (P30988 34-141) above, with D68E counted along it
From the text: as §1, §2, §3

[3] = target: T3, amylin receptor 1 ECD with calcitonin receptor N135D mutation (Homo sapiens, UniProt O60894+P30988, N135D); experiment: FP saturation binding, N135D; details: for Average fluorescence intensity change upon receptor ECD binding: % of a free probe intensity, Mean ± S.D., max receptor 3 μM (sCT), 1 μM (AC413); for effect of mutation on binding affinity: in words
T3 construct: pHLsec/hRAMP1.24–111-(GSA)3-hCTR.34–141.N135D-H6 (D-pJS002); H6 (hexahistidine) (C); made in house; host or cells: HEK293 (transient transfection, secreted, N-glycosylated)
T3 sequence (O60894 24-111): as the sequence (O60894 24-111) above
T3 sequence (P30988 34-141 N135D): as the sequence (P30988 34-141) above, with N102D counted along it
From the text: as §1
(§4) The overall experimental procedure of reconstituting the functional amylin receptor 1 extracellular domain (ECD) as the fusion protein of RAMP1 ECD and the calcitonin receptor ECD was previously described. The wild-type and mutated amylin receptor 1 ECDs were expressed from HEK293 cells with transient transfection with polyethylenimine. The expressed receptor proteins were secreted to cell culture media for 4 days at 37 °C. The media were collected for the receptor protein purification. Initial dialysis was performed with the dialysis buffer (Tris 25 mM (pH 7.4), NaCl 150 mM, and imidazole 10 mM) overnight. […] Then, a size exclusion column chromatography (SEC) was performed with SEC column (Cytiva, HiLoad® 16/600 Superdex® 200 pg) and SEC buffer (Tris 50 mM (pH 7.4), NaCl 150 mM, and glycerol (v/v) 10%) as previously described. As the final step, the purified receptor proteins were dialyzed to storage buffer (HEPES 25 mM (pH 7.4), NaCl 150 mM, and glycerol (v/v) 50 %) and were stored at −60 °C until their use for the receptor–ligand binding assay. […]
as §3

[4] = target: T4, amylin receptor 1 ECD with calcitonin receptor N124A mutation (Homo sapiens, UniProt O60894+P30988, N124A); experiment: FP saturation binding, N124A; details: for Average fluorescence intensity change upon receptor ECD binding: % of a free probe intensity, Mean ± S.D., N124A, max receptor 1 μM; for decrease of binding affinity: N124A versus wild-type receptor ECD
T4 construct: pHLsec/hRAMP1.24–111-(GSA)3-hCTR.34–141.N124A-H6 (D-pJS005); H6 (hexahistidine) (C); made in house; host or cells: HEK293 (transient transfection, secreted, N-glycosylated)
T4 sequence (O60894 24-111): as the sequence (O60894 24-111) above
T4 sequence (P30988 34-141 N124A): as the sequence (P30988 34-141) above, with N91A counted along it
From the text: as §1, §4, §3

[5] = target: T5, amylin receptor 1 ECD with calcitonin receptor D97E mutation (Homo sapiens, UniProt O60894+P30988, D97E); experiment: FP saturation binding, D97E; details: for Average fluorescence intensity change upon receptor ECD binding: % of a free probe intensity, Mean ± S.D., max receptor 3 μM (sCT), 1 μM (AC413); for effect of mutation on binding affinity: in words
T5 construct: pHLsec/hRAMP1.24–111-(GSA)3-hCTR.34–141.D97E-H6 (D-pJS001); H6 (hexahistidine) (C); made in house; host or cells: HEK293 (transient transfection, secreted, N-glycosylated)
T5 sequence (O60894 24-111): as the sequence (O60894 24-111) above
T5 sequence (P30988 34-141 D97E): as the sequence (P30988 34-141) above, with D64E counted along it
From the text: as §1, §4, §3

| SMILES | Average fluorescence intensity change upon receptor ECD binding [1] | Average fluorescence intensity change upon receptor ECD binding [2] | Average fluorescence intensity change upon receptor ECD binding [3] | effect of mutation on binding affinity [3] | Average fluorescence intensity change upon receptor ECD binding [4] | decrease of binding affinity [4] | Average fluorescence intensity change upon receptor ECD binding [5] | effect of mutation on binding affinity [5] | stronger affinity of FITC-labeled over non-labeled peptide ([1]; KD 81 nM versus previously reported KI 2.5 μM of non-labeled sCT(22–32)) | effect of mutation on binding affinity ([2]; in words) |
| --- | --- | --- | --- | --- | --- | --- | --- | --- | --- | --- |
| CC(C)C[C@H](NC(=O)[C@H](CCCNC(=N)N)NC(=O)[C@@H](NC(=O)[C@H](CC(C)C)NC(=O)[C@H](Cc1ccccc1)NC(=O)[C@H](CC(N)=O)NC(=O)[C@H](C)NC(=S)Nc1ccc2c(c1)C(=O)OC21c2ccc(O)cc2Oc2cc(O)ccc21)C(C)C)C(=O)N[C@@H](CCC(N)=O)C(=O)N[C@H](C(=O)N[C@@H](Cc1ccc(O)cc1)C(=O)N1CCC[C@H]1C(=O)N[C@@H](CCCNC(=N)N)C(=O)N[C@H](C(=O)N[C@@H](CC(N)=O)C(=O)N[C@H](C(=O)NCC(=O)N[C@@H](C)C(=O)N[C@@H](CC(N)=O)C(=O)N[C@H](C(=O)N1CCC[C@H]1C(N)=O)[C@@H](C)O)C(C)C)[C@@H](C)O)[C@@H](C)O [FITC-AC413(6–25) Y25P] ({FITC}-ANFLVRLQTYPRTNVGANTP-NH2; C-terminus assumed) | 67 ± 8% | 99 ± 3% | 85 ± 15% | failed to recover the binding affinity | 87 ± 2% | 8.2 fold | 68 ± 3% | not significantly changed | – | – |
| C[C@@H](O)[C@H](NC(=O)[C@H](CC(N)=O)NC(=O)[C@@H](NC(=O)[C@H](CCCNC(=N)N)NC(=O)[C@@H]1CCCN1C(=O)[C@H](Cc1ccc(O)cc1)NC(=S)Nc1ccc2c(c1)C(=O)OC21c2ccc(O)cc2Oc2cc(O)ccc21)[C@@H](C)O)C(=O)NCC(=O)N[C@@H](CO)C(=O)NCC(=O)N[C@H](C(=O)N1CCC[C@H]1C(N)=O)[C@@H](C)O [FITC-sCT(22–32)] ({FITC}-YPRTNTGSGTP-NH2; C-terminus assumed) | 71 ± 4% | 118 ± 13% | 99 ± 0.1% | failed to recover the binding affinity | 85 ± 11% | more than 10 fold | 78 ± 4% | partially restored the decreased affinity | more than 30 fold | failed to recover the binding affinity |
